Measured values: patent US20040059104A1, “Nucleotide mimics and their prodrugs” (priority 2002, published 2004)
Read-outs that look alike come from different tables or passages of the source.

What was measured:
[1] = target: Ribonucleotide Reductase (RNR R1/R2) (Escherichia coli, UniProt P00452); assay: Ribonucleotide Reductase inhibition assay (coupled NADPH oxidation); assay type: biochemical
Protocol: The assays employed to measure inhibition of Ribonucleotide Reductase (RNR) activity are described below. The effectiveness of the compounds of the present invention as inhibitors of RNR enzyme was determined using the following assays.
This assay was used to measure the ability of the nucleotide mimics of the present invention to inhibit the enzymatic reaction catalyzed by RNR enzyme. In the reduction of cytidine 5′-diphosphate (CDP) to 2′-deoxycytidine 5′-diphosphate (dCDP), stoichiometric amounts of oxidized thioredoxin are formed. This protein is reduced by NADPH in a reaction catalyzed by thioredoxin reductase. By coupling the two reactions, RNR activity was measured by spectrophotometric determination of NADPH oxidation at 340 nm using a UV/VIS spectrophotometer. […]
The standard RNR assay is performed in a 96-well plate (Corning). […] The oxidation of NADPH was monitored at 340 nm on a microplate spectrophotometer (Molecular Devices Corp, Sunnyvale, Calif.). […]
The percentage of inhibition was calculated according to the following equation: […]
Each inhibitor was titrated over an appropriate range of concentrations, and IC50 values were determined using the equation: […]

in vitro = conditions: bovine, serum, Half-Life, Serum Half-Lives of Gemcitibine Diphosphate Mimics and Their Prodrugs
[2] = Mammalian cell growth inhibition assay (MTT cytotoxicity); assay type: cell-based, Human; conditions: human; CCRF-CEM cells, 72 hr, MTT; read-out: Cytotoxicity IC50 (antiproliferative effect)
Protocol: (§1) The assays employed for determining the cytotoxicity of the nucleotide mimics of the present invention to mammalian cells are described below.
(§2) Human CCRF-CEM cells were obtained from American Tissue Culture Collection (ATCC) and grown according to ATCC specifications. […] CEM cells were grown at 37° C. in a 95% humidified environment and 5% CO2 atmosphere.
(§3) MTT is water soluble tetrazolin salt that is converted to an insoluble purple formazan by active mitochondrial dehydrogenases of living cells. […] Conversion of MTT into the insoluble formazan by non-treated control or treated cells was monitored at 540 nm.
(§4) CCRF-CEM cells (3×10^4) were plated in 96-well plates in RPMI media. The next day, cells were incubated with different concentrations (0-200 μM) of the nucleotide mimics of the present invention for 72 hr. Following treatment, MTT (2 mg/ml in PBS) dye was added to each well so that the final concentration was 0.5 mg/ml and then incubated for 4 hr at 37° C. Media and MTT dye were removed without disturbing the cells and 100% DMSO was added to dissolve the precipitate. After a 10 minute incubation at room temperature, the optical density values were measured at 540 nm, using the Spectra Max Plus plate reader. Survival was expressed as the percentage of viable cells in treated samples relative to non-treated control cells.

Staphylococcus aureus = assay: Antimicrobial assay, minimal inhibitory concentration; assay type: cell-based; conditions: Staphylococcus aureus, read-out: S. aureus MIC
Outline: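 E. coli and S. aureus grown overnight at 37° C were first screened by disc diffusion on Nutrient Broth agar lawns. MIC was then read after overnight incubation at 37° C as the lowest compound concentration giving no increase in absorbance at 600 nm.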

CCRF-CEM cells = assay: Mammalian cell growth inhibition assay (MTT cytotoxicity); assay type: cell-based, Human
Protocol: as §1, §2, §3, §4

Ribonucleotide Reductase (RNR R1/R2), sequence (P69924 2-376): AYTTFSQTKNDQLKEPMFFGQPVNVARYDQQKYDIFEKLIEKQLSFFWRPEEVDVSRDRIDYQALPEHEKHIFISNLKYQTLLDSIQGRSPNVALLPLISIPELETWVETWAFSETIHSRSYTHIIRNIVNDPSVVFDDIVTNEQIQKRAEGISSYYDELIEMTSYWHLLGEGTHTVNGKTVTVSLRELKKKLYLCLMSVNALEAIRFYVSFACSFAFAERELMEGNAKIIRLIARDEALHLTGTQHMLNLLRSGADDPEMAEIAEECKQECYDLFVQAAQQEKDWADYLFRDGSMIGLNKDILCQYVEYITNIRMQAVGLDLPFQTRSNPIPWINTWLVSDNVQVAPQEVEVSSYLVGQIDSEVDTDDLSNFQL
Ribonucleotide Reductase (RNR R1/R2), sequence (P00452 whole entry): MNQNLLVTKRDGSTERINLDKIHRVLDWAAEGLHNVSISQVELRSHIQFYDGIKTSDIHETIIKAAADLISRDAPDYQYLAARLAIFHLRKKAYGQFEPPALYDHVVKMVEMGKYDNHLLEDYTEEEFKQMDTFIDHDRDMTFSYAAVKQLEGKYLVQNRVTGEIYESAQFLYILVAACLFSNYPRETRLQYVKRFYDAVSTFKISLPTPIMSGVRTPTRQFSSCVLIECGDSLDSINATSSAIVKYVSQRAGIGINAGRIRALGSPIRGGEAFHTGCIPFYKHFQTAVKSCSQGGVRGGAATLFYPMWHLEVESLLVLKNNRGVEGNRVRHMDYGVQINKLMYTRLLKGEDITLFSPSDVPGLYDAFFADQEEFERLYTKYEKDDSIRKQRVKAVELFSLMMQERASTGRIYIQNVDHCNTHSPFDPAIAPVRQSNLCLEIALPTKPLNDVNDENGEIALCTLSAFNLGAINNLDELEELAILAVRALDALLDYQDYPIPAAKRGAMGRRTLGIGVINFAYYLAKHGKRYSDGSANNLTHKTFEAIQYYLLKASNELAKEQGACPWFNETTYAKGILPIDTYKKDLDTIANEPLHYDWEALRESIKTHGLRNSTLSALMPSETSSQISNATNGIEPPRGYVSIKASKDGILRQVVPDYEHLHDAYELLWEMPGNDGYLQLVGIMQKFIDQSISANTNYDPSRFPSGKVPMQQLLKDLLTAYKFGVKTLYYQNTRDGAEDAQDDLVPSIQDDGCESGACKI

SMILES: Nc1ccn([C@@H]2O[C@H](COP(=O)(O)NP(=O)(O)O)[C@@H](O)C2(F)F)c(=O)n1 [Compound 6, 2′-Deoxy-2′,2′-difluorocytidine 5′-imidodiphosphate]
- IC50 [1]: 12.6 µM
- half-life at 500 μM (in vitro): 15 h

SMILES: Nc1ccn([C@@H]2O[C@H](COP(=O)(O)CP(=O)(O)O)[C@@H](O)C2(F)F)c(=O)n1 [Compound 5, 2′-Deoxy-2′,2′-difluorocytidine-5′-methylenediphosphonate]
- IC50 at 72 h [2]: 4.8 µM
- half-life at 500 μM (in vitro): > 48 h
- MIC (Staphylococcus aureus; overnight at 37° C., tested 0-200 μg/ml, NA = Not active): > 200 µg/mL
- MIC (Staphylococcus aureus; value in brackets beside the μg/ml value): > 475 µM

SMILES: Nc1ccn([C@@H]2O[C@H](CO)[C@@H](O)C2(F)F)c(=O)n1 [Gemcitabine, 2′-deoxy-2′,2′-difluorocytidine, reference compound]
- IC50 at 72 h [2]: 0.035 µM

SMILES: Nc1ccn([C@@H]2O[C@H](COP(=O)(O)NP(=O)(O)O)[C@@H](O)/C2=C\F)c(=O)n1 [Compound 3, 2′-Deoxy-(E)-2′-fluoromethylenecytidine 5′-imidodiphosphate]
- IC50 ([1]; 3-minute inactivation, then assay with 1 mM CDP, read-out: IC50, Inhibition of Ribonucleotide Reductase by Nucleotide Mimics): 8.9 µM

SMILES: CC(C)(C)C(=O)SCCOP(=O)(CP(=O)(OCCSC(=O)C(C)(C)C)OCC1OC(n2ccc(N)nc2=O)C(F)(F)C1O)OCCSC(=O)C(C)(C)C (stereo not drawn) [Compound 77, 2′-deoxy-2′,2′-difluorocytidine 5′-tri-O—(S-pivaloyl-2-thioethyl)-α,β-methylenediphosphonate]
- IC50 (CCRF-CEM cells): 0.1 µM
